Holding throughout (type): cell-based, human
The subject of test [1] is breast cell line (ZR-75-1). Nature of the test: XTT-assay proliferation rate, breast cell line. The following applies: ZR-75-1 (Table 6), no IVM. The method, then: (§1) Commercially available human tumor cell lines were purchased from ATCC (ATCC/LGC-standards, Borás, Sweden). […] Briefly, ampoules of frozen cells were thawed by submerging into a 37° C. water bath for 45 s. […] With supernatant discarded, cell pellets were further resuspended with 5 ml complete medium into 25 cm^2 cell culture flasks (Cell+, Sarstedt, Nümbrecht, Germany). Tumor cells were cultured until sub-confluence and further sub-cultured with Trypsin (0.5%), EDTA (0.2%) solution (T4174, TE-10x, Sigma) in sterile sodium chloride. Culture media was changed two-three times a week. Culture flasks (Cell+, Sarstedt, Nümbrecht, Germany) and culture plates (Falcon/BD, Franklin Lakes, N.J., USA) were used for experimental set-ups. Cells were regularly monitored using an inverted microscope connected to a digital photo equipment (Axiovert 25 and Axiovision, Zeiss, Carl Zeiss AG, Germany) (FIG. 1). Described culture techniques and equipment have been used extensively in the laboratory
(§2) The proliferation rates of the different human tumor cell lines were studied using a method based on the conversion of a sodium salt (XTT-assay, Sigma) into a stable orange color that could be analyzed in a spectrophotometer. […] The color change was measured using a 96-well plate reader with software to calculate the absorbance at 450 nm (V-max/Softmax Pro, Molecular Devices, USA).
(§3) Increasing concentrations of substance ivermectin was added with an 8-channel pipette (Titertek, Kem-En-Tec, Taastrup, Denmark) together with sterile pipette tips (Molecular Bioproducts, San Diego, Calif., USA). Cell cultures including active substances were incubated for 24 hours (and 96 hours). Untreated wells including culture medium only served as untreated controls. The XTT-assay substrate was added and after gentle agitation using a micro plate shaker, absorbencies at 450 and 650 nm were measured. Levels from medium were subtracted and compared with control wells, using culture medium only.
In general terms: Tetrazolium assays rely on reduction of a dye to a coloured formazan, in cell work by metabolically active cells.

The subject of test [2] is urinary bladder cell line (UM-UC-3). In words: XTT-assay proliferation rate, urinary bladder cell line. Conditions: UM-UC-3 (Table 3), no IVM. On the procedure: as §1, §2, §3
Test [3] concerns colorectal cell line (Colo205). Nature of the test: XTT-assay proliferation rate, colorectal cell line Colo205. The following applies: Colo205 (Table 4), no IVM. The text has this:
Commercially available human tumor cell lines were purchased from […], Borás, Sweden). Cell lines from urinary bladder (UM-UC-3, #CRL-1749), colorectal carcinoma (Colo205, #CCL-222 and HT29, #HTB-38), prostate carcinoma (LNCaP, #CRL-1740) and breast carcinoma (ZR-75-1, #CRL-1500) were purchased and stored in liquid nitrogen. […] Tumor cell lines were handled aseptically using a laminar airflow (LAF) bench (Holten 2448, Ninolab, Sweden) and stored in a liquid nitrogen tank and were initiated in culture as previously described (Falk P. Experimental models of the peritoneal environment: Effects of TGF-beta and Hyaluronan. Göteborg: University of Gothenburg; 2008). Briefly, ampoules of frozen cells were thawed by submerging into a 37° C. water bath for 45 s. […] Culture media was changed two-three times a week. Culture flasks (Cell+, Sarstedt, Nümbrecht, Germany) and culture plates (Falcon/BD, Franklin Lakes, N.J., USA) were used for experimental set-ups. […] Described culture techniques and equipment have been used extensively in the laboratory The proliferation rates of the different human tumor cell lines were studied using a method based on the conversion of a sodium salt (XTT-assay, Sigma) into a stable orange color that could be analyzed in a spectrophotometer. The color change is proportional to the mitochondrial dehydrogenase activity resulting in an effective technique for measuring cell toxicity (Roehm N W, Rodgers […], Glasebrook A L. An improved colorimetric assay for cell proliferation and viability utilizing the tetrazolium salt XTT. […] The color change was measured using a 96-well plate reader with software to calculate the absorbance at 450 nm (V-max/Softmax Pro, Molecular Devices, USA). […] RPMI 1640 and EMEM without phenol red was used during the experiments to reduce the red color background signal in the XTT-assay. […] Untreated wells including culture medium only served as untreated controls. The XTT-assay substrate was added and after gentle agitation using a micro plate shaker, absorbencies at 450 and 650 nm were measured. Levels from medium were subtracted and compared with control wells, using culture medium only.

The subject of test [4] is prostatic cell line (LNCaP). Nature of the test: XTT-assay proliferation rate, prostatic cell line. The following applies: LNCaP (Table 5); single agent 10 μmol/L, no IVM. On the procedure: as §1, §2, §3
Another test deals with prostate cells (LNCaP). In words: Morphology of cultured tumor cells, LNCaP. The method, then:
as §1
(§4) The effect of Ivermectin, selamectin, abamectin alone, or in combination with ketoconazole, albendazole, ibuprofen, diclofenac and celecoxib on the morphology of cultured human tumor cells was studied. The effect of ivermectin in the presence of increasing concentration of ivermectin was also investigated. Cells were grown into sub-confluence and then sub-cultured into 12 and 24 well plates (Sarstedt, Falcon/BD) for morphology studies, or in 96 well plates (Sarstedt, Falcon/BD) for proliferation studies.

Test [5] deals with prostatic cell line (LNCaP). In words: XTT-assay proliferation rate, prostatic cell line. The following applies: for Proliferation rate compared to untreated control: LNCaP (Table 5), no IVM.
The test system of test [6] is colorectal cells (Colo205). Nature of the test: Morphology of cultured tumor cells, Colo205. Conditions: ivermectin 10 μM alone, albendazole 20 and 40 μM alone (FIG. 11). On the procedure: as §1, §4

`Cc1ccc(-c2cc(C(F)(F)F)nn2-c2ccc(S(N)(=O)=O)cc2)cc1` [celecoxib, 4-[5-(4-methylphenyl)-3-(trifluoromethyl)pyrazol-1-yl]benzenesulfonamide]: the results for the “Proliferation rate compared to untreated control” value in test [1] (single agent 10 μmol/L), in test [1] (single agent 20 μmol/L) and in test [1] (single agent 40 μmol/L) were 116.5 ± 4.4%, 110.6 ± 13.3% and 95.2 ± 4.9%, respectively. Moreover, the entries for the “Proliferation rate compared to untreated medium control” value in test [2] (single agent 10 μmol/L), in test [2] (single agent 20 μmol/L) and in test [2] (single agent 40 μmol/L) were 103 ± 9%, 100 ± 6% and 106 ± 1%, respectively. The “Proliferation rate compared to medium control” value in test [3] (single agent 10 μmol/L) was 98.7 ± 15.8%; in test [3] (single agent 20 μmol/L) it was 94.8 ± 2.5%; in test [3] (single agent 40 μmol/L), 94.5 ± 6.6%.

With `CC(C)Cc1ccc(C(C)C(=O)O)cc1` (racemic) [ibuprofen, (RS)-2-(4-(2-methylpropyl)phenyl)propanoic acid], the entries for the “Proliferation rate compared to untreated control” value in test [1] (single agent 10 μmol/L), in test [1] (single agent 20 μmol/L) and in test [1] (single agent 40 μmol/L) were 115.2 ± 3.8%, 116.2 ± 1.9% and 108.7 ± 6.7%, respectively. Further, the “Proliferation rate compared to untreated medium control” value was 103 ± 2% in test [2] (single agent 10 μmol/L), 106 ± 2% in test [2] (single agent 20 μmol/L) and 99 ± 3% in test [2] (single agent 40 μmol/L). Moreover, the “Proliferation rate compared to medium control” value in test [3] (single agent 10 μmol/L) is listed as 90.1 ± 8.8%; in test [3] (single agent 20 μmol/L), 92.2 ± 8.2%; in test [3] (single agent 40 μmol/L), 90.8 ± 6.3%.

As to `CC(=O)N1CCN(c2ccc(OC[C@H]3CO[C@](Cn4ccnc4)(c4ccc(Cl)cc4Cl)O3)cc2)CC1` [ketoconazole, 1-[4-(4-{[(2R,4S)-2-(2,4-Dichlorophenyl)-2-(1H-imidazol-1-ylmethyl)-1,3-dioxolan-4-yl]methoxy}phenyl)piperazin-1-yl]ethan-1-one], the “Proliferation rate compared to untreated medium control” value in test [2] (single agent 10 μmol/L) is recorded as 95 ± 6%; in test [2] (single agent 20 μmol/L), 99 ± 6%; in test [2] (single agent 40 μmol/L) it was 103 ± 2%. Besides, the “Proliferation rate compared to untreated control” value is reported as 104.6±3.0% in test [4]; 104.6 ± 3.0% in test [5] (single agent 10 μmol/L, listed as Ket); 76.3 ± 2.3% in test [5] (single agent 20 μmol/L); 68.0 ± 1.8% in test [5] (single agent 40 μmol/L). Moreover, the Effect on morphology result in the test with prostate cells (LNCaP) (ketoconazole 10 μM) is “not microscopically affected”; in the test on prostate cells (LNCaP) (ketoconazole 20 and 40 μM) it was “did affect morphology”. Moreover, the “Proliferation rate compared to medium control” value stood at 94.8 ± 6.3% in test [3] (single agent 10 μmol/L), 93.4 ± 8.1% in test [3] (single agent 20 μmol/L) and 72.1 ± 15.5% in test [3] (single agent 40 μmol/L). Also, in test [5] (LNCaP, ketoconazole alone at 20 and 40 μM), the “Effect on proliferation rate” value was “decreased the proliferation rate”.

Take `CCCSc1ccc2nc(NC(=O)OC)[nH]c2c1` [albendazole, Methyl[6-(propylthio)-1H-benzoimidazol-2-yl]carbamate]: in test [6], the “Decreased growth of cells, substances tested alone” value is listed as “not seen”.

(Values after patent US9782424B2, “Synergistic combination comprising avermectins and a NSAID for tumor inhibition” (Ectin Research AB, priority 2011, dated 2017).)
